Test results reported in patent publication US5726195A, “Aminoacyl adenylate mimics as novel antimicrobial and antiparasitic agents” (Cubist Pharmaceuticals, Inc., priority 1996, dated 1998).
≈ marks a conversion by molar mass, not a printed value.

What was measured:
[1] = target: E. Coli. IleRS (isoleucyl-tRNA synthetase) (Escherichia coli, UniProt P00956); experiment: Inhibition of isoleucyl-tRNA synthetase (aminoacylation of tRNA with [3H]isoleucine); type: biochemical; conditions: E. coli enzyme; irreversible inhibitors: values are 50% of the active enzyme concentration; read-out: IC50 E.Coli. IleRS
Chain of E. Coli. IleRS (isoleucyl-tRNA synthetase) (P00956 whole entry): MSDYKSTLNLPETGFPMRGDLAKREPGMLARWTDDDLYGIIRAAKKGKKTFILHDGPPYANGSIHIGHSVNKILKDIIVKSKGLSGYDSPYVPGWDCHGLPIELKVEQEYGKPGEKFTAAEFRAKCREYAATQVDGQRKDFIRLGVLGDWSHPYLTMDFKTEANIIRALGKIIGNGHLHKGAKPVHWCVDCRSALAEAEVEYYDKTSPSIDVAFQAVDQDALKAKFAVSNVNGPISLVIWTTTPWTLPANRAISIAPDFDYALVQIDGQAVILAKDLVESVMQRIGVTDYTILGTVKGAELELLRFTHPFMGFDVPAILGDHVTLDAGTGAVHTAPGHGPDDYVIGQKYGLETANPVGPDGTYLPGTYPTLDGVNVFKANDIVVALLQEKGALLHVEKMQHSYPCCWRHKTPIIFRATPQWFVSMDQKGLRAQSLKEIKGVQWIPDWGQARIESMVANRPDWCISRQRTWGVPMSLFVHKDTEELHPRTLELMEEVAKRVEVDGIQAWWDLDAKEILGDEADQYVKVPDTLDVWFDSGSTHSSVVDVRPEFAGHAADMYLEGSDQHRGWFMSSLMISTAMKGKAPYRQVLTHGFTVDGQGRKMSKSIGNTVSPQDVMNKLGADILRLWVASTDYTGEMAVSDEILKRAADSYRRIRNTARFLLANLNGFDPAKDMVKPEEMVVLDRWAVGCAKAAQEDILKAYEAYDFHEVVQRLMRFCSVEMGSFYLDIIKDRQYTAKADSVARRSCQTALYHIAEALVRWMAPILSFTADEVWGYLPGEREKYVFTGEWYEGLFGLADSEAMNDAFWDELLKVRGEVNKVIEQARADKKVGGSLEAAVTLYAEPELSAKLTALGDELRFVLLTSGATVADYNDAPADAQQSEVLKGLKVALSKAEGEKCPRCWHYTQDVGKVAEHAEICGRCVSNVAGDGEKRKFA
Method: The extent of aminoacylation of tRNA with isoleucine catalyzed by isoleucyl-tRNA synthetase enzyme was measured by monitoring the incorporation of [3H] isoleucine into trichloroacetic acid-precipitable tRNA in the presence of a compound of Formula I, as compared with activity in the absence of inhibitor. The isoleucyl-tRNA synthetase enzymes are well known in the prior art and can be obtained and purified by known methods (for example see: D. Kern et at., Biochimie, 61, 1257-1272 (1979) and J. Gilbart et al., Antimicrobial Agents and Chemotherapy, 37 (1), 32-38 (1993)).
Isoleucyl-tRNA synthetase enzyme (0.08-2.0 nM, preferably, 0.4 nM) was first pre-incubated at 25° C. with 0.05 mg/ml bovine serum albumin, 10 mM DTT, 2.5% dimethyl sulfoxide, with or without a compound of Formula I, for 20 minutes. At this point a substrate solution (a solution containing the following: ATP, [^3 H]isoleucine, tRNA, HEPES, magnesium chloride, and potassium chloride) was added to give a final concentration of 0.0286 mg/ml bovine serum albumin, 5.7 mM DTT, 4 mM ATP, 5-20 μM [^3 H] isoleucine (1-15 Ci/mmol), 90 μM crude tRNA or 2 μM isoleucine specific tRNA, 1.4% dimethyl sulfoxide, 30 mM HEPES (pH 7.5), 10 mM magnesium chloride, and 50 mM potassium chloride and incubated at 25° C. Aliquots were removed at selected times (e.g. 5, 10, 20 minutes) and applied to 3MM filter paper discs (Whatman) and then dropped into 5% (wt/vol) trichloroacetic acid for >5 minutes. Filters were washed for three 10-minute periods in 5% trichloroacetic acid, rinsed in 95% ethanol and diethyl ether, and radioactivity was measured with Betafluor™ (National Diagnostics) by liquid scintillation counting.
Inhibitor activity is reported in Table II as an IC50 value (inhibitor concentration causing 50% inhibition of enzyme activity) per a known amount of active enzyme. In the case of irreversible inhibitors (1:1 stoichiometry) these values are 50% of the active enzyme concentration. The IC50 (in nM, E. coli) values of representative compounds of the present invention are listed in the second column of Table II.

E. faecalis ATCC 33011 = experiment: Whole cell antimicrobial screen, MIC; type: cell-based; conditions: Enterococcus faecalis, ATCC33011
Method: (§1) Compounds were tested for antimicrobial activity against a panel of organisms according to standard procedures described by the National Committee for Clinical Laboratory Standards (NCCLS document M7-A3, Vol. 13, No. 25, 1993/NCCLS document M27-P, Vol. 12, No. 25, 1992). Compounds were dissolved in 100% dimethyl sulfoxide and were diluted to the final reaction concentration (0.1 μg/mL-500 μg/mL) in microbial growth media. In al cases the final concentration of dimethyl sulfoxide incubated with cells is less than or equal to 1%. For minimum inhibitory concentration (MIC) calculations, 2-fold dilutions of compounds were added to wells of a microtiter plate containing 5×10^4 bacteria or fungal cells in a final volume of 100 lambda of an appropriate media (Mueller-Hinton Broth; Haemophilus Test Media; Mueller-Hinton Broth+5% Sheep Blood; or […]). Plates were incubated overnight at an appropriate temperature (30° C.-37° C.) and optical densities (measure of cell growth) were measured using a commercial plate reader. The MIC value is defined as the lowest compound concentration inhibiting growth of the test organism.

E. faecium ATCC 6569 = experiment: Whole cell antimicrobial screen, MIC; type: cell-based; conditions: Enterococcus faecium, ATCC6569
Method: as §1

C. albicans ATCC 10231 = experiment: Whole cell antimicrobial screen, MIC; type: cell-based; conditions: Candida albicans, ATCC10231
Method: as §1

[2] = tested on: S. saprophyticus ATCC 35552; experiment: Whole cell antimicrobial screen, MIC; type: cell-based; conditions: Staphylococcus saprophyticus, ATCC35552
Method: as §1

[3] = tested on: S. epidermidis ATCC 33501; experiment: Whole cell antimicrobial screen, MIC; type: cell-based; conditions: Staphylococcus epidermidis, ATCC33501
Method: as §1

S. aureus ATCC 6538P = experiment: Whole cell antimicrobial screen, MIC; type: cell-based; conditions: Staphylococcus aureus, ATCC6538P
Method: as §1

S. aureus ATCC 14154 = experiment: Whole cell antimicrobial screen, MIC; type: cell-based; conditions: Staphylococcus aureus, ATCC14154
Method: as §1

K. pneumonia ATCC 4352 = experiment: Whole cell antimicrobial screen, MIC; type: cell-based; conditions: Klebsiella pneumoniae, ATCC4352
Method: as §1

B. subtilis ATCC 6633 = experiment: Whole cell antimicrobial screen, MIC; type: cell-based; conditions: Bacillus subtilis, ATCC6633
Method: as §1

SMILES | IC50 [1] | MIC (E. faecalis ATCC 33011) | MIC (E. faecium ATCC 6569) | MIC (C. albicans ATCC 10231) | MIC [2] | MIC [3] | MIC (S. aureus ATCC 6538P) | MIC (S. aureus ATCC 14154) | MIC (K. pneumonia ATCC 4352) | MIC (B. subtilis ATCC 6633)
CC[C@H](C)[C@H](N)C(=O)NS(=O)(=O)OC[C@H]1O[C@@H](CCn2nnc(-c3ccc(C#Cc4ccc([N+](=O)[O-])s4)cc3)n2)[C@H](O)[C@@H]1O [I, [S-(R*,R*)]-3,6-anhydro-1,2-dideoxy-1-[5-[4-[(5-nitro-2-thienyl)ethynyl]phenyl]-2H-tetrazol-2-yl]-D-allo-heptitol 7-(2-amino-3-methyl-1-oxopentyl)sulfamate] | 1.3 nM | > 500 µg/mL | > 500 µg/mL | > 500 µg/mL | 2 µg/mL (≈ 3.08 µM) | 1 µg/mL (≈ 1.54 µM) | 1 µg/mL (≈ 1.54 µM) | 5 µg/mL (≈ 7.7 µM) | – | –
CC[C@H](C)[C@H](N)C(=O)NS(=O)(=O)OC[C@H]1O[C@@H](CCn2nnc(-c3ccc(C#Cc4cccc([N+](=O)[O-])c4)cc3)n2)[C@H](O)[C@@H]1O [III] | 3 nM | > 500 µg/mL | > 500 µg/mL | > 500 µg/mL | 5 µg/mL (≈ 7.77 µM) | 1 µg/mL (≈ 1.55 µM) | 50 µg/mL (≈ 77.7 µM) | 50 µg/mL (≈ 77.7 µM) | – | –
CC[C@H](C)[C@H](N)C(=O)NS(=O)(=O)OC[C@H]1O[C@@H](CCn2nnc(-c3ccc([N+](=O)[O-])cc3)n2)[C@H](O)[C@@H]1O [VIII] | 0.5 nM | > 500 µg/mL | 500 µg/mL (≈ 920 µM) | > 500 µg/mL | 100 µg/mL (≈ 184 µM) | 10 µg/mL (≈ 18.4 µM) | 500 µg/mL (≈ 920 µM) | 500 µg/mL (≈ 920 µM) | – | –
CC[C@H](C)[C@H](N)C(=O)NS(=O)(=O)OC[C@H]1O[C@@H](CCn2nnc(-c3ccc(C(=O)OC)cc3)n2)[C@H](O)[C@@H]1O [VII] | 0.53 nM | > 500 µg/mL | 100 µg/mL (≈ 180 µM) | > 500 µg/mL | 50 µg/mL (≈ 89.8 µM) | 10 µg/mL (≈ 18 µM) | 100 µg/mL (≈ 180 µM) | 500 µg/mL (≈ 898 µM) | – | –
CC[C@H](C)[C@H](N)C(=O)NS(=O)(=O)OC[C@H]1O[C@@H](CCn2nnc(-c3ccc(C=C(Br)Br)cc3)n2)[C@H](O)[C@@H]1O [V] | 11 nM | 500 µg/mL (≈ 733 µM) | 100 µg/mL (≈ 147 µM) | 500 µg/mL (≈ 733 µM) | 25 µg/mL (≈ 36.6 µM) | 25 µg/mL (≈ 36.6 µM) | 50 µg/mL (≈ 73.3 µM) | 100 µg/mL (≈ 147 µM) | – | –
CC[C@H](C)[C@H](N)C(=O)NS(=O)(=O)OC[C@H]1O[C@@H](CCn2nnc(-c3ccc(Oc4ccc(N)cc4)cc3)n2)[C@H](O)[C@@H]1O [XIII] | 0.4 nM | > 500 µg/mL | 25 µg/mL (≈ 41.3 µM) | > 500 µg/mL | 25 µg/mL (≈ 41.3 µM) | 10 µg/mL (≈ 16.5 µM) | 50 µg/mL (≈ 82.6 µM) | 100 µg/mL (≈ 165 µM) | – | –
CC[C@H](C)[C@H](N)C(=O)NS(=O)(=O)OC[C@H]1O[C@@H](CCn2nnc(-c3ccc(Oc4ccc(OC)cc4)cc3)n2)[C@H](O)[C@@H]1O [XII] | 3 nM | 500 µg/mL (≈ 806 µM) | 10 µg/mL (≈ 16.1 µM) | 500 µg/mL (≈ 806 µM) | 25 µg/mL (≈ 40.3 µM) | < 5 µg/mL | 25 µg/mL (≈ 40.3 µM) | 50 µg/mL (≈ 80.6 µM) | – | –
CC[C@H](C)[C@H](N)C(=O)NS(=O)(=O)OC[C@H]1O[C@@H](CCn2nnc(-c3ccc(Oc4cccc(C(F)(F)F)c4)cc3)n2)[C@H](O)[C@@H]1O [XIV] | 1.7 nM | 100 µg/mL (≈ 152 µM) | 10 µg/mL (≈ 15.2 µM) | > 500 µg/mL | 10 µg/mL (≈ 15.2 µM) | 5 µg/mL (≈ 7.59 µM) | 10 µg/mL (≈ 15.2 µM) | 25 µg/mL (≈ 38 µM) | – | –
CC[C@H](C)[C@H](N)C(=O)NS(=O)(=O)OC[C@H]1O[C@@H](CCn2nnc(-c3ccc(Oc4nccs4)cc3)n2)[C@H](O)[C@@H]1O [XVII] | 1 nM | > 500 µg/mL | 50 µg/mL (≈ 83.7 µM) | > 500 µg/mL | 50 µg/mL (≈ 83.7 µM) | 25 µg/mL (≈ 41.8 µM) | 100 µg/mL (≈ 167 µM) | 500 µg/mL (≈ 837 µM) | – | –
CC[C@H](C)[C@H](N)C(=O)NS(=O)(=O)OC[C@H]1O[C@@H](CCn2nnc(-c3ccc(Oc4ccccn4)cc3)n2)[C@H](O)[C@@H]1O [XVI] | 0.7 nM | 500 µg/mL (≈ 845 µM) | 50 µg/mL (≈ 84.5 µM) | 100 µg/mL (≈ 169 µM) | 50 µg/mL (≈ 84.5 µM) | 25 µg/mL (≈ 42.3 µM) | 100 µg/mL (≈ 169 µM) | 100 µg/mL (≈ 169 µM) | – | –
CC[C@H](C)[C@H](N)C(=O)NS(=O)(=O)OC[C@H]1O[C@@H](CCn2nnc(-c3ccc(Oc4ccc(Oc5ccccc5)cc4)cc3)n2)[C@H](O)[C@@H]1O [XV] | 1.8 nM | > 500 µg/mL | 25 µg/mL (≈ 36.6 µM) | > 500 µg/mL | 10 µg/mL (≈ 14.6 µM) | 5 µg/mL (≈ 7.32 µM) | 10 µg/mL (≈ 14.6 µM) | 10 µg/mL (≈ 14.6 µM) | – | –
CC[C@H](C)[C@H](N)C(=O)NS(=O)(=O)OC[C@H]1O[C@@H](CCn2nnc(-c3ccc(-c4ccc(F)c(F)c4)cc3)n2)[C@H](O)[C@@H]1O [XXIII] | 2.9 nM | – | 100 µg/mL (≈ 164 µM) | 10 µg/mL (≈ 16.4 µM) | 25 µg/mL (≈ 40.9 µM) | 10 µg/mL (≈ 16.4 µM) | 50 µg/mL (≈ 81.9 µM) | 100 µg/mL (≈ 164 µM) | 100 µg/mL (≈ 164 µM) | 50 µg/mL (≈ 81.9 µM)
CC[C@H](C)[C@H](N)C(=O)NS(=O)(=O)OC[C@H]1O[C@@H](CCn2nnc(CCCOc3ccccc3)n2)[C@H](O)[C@@H]1O [XXIX] | 0.3 nM | > 500 µg/mL | > 500 µg/mL | > 500 µg/mL | 500 µg/mL (≈ 898 µM) | 25 µg/mL (≈ 44.9 µM) | 500 µg/mL (≈ 898 µM) | > 500 µg/mL | – | –
CC[C@H](C)[C@H](N)C(=O)NS(=O)(=O)OC[C@H]1O[C@@H](Cn2nnc(Cc3ccc(Oc4ccccc4)cc3)n2)[C@H](O)[C@@H]1O [XXVII, [S-(R*,R*)]-2,5-anhydro-1-deoxy-1-[5-(4-phenoxyphenylmethyl)-2H-tetrazol-2-yl]-D-allitol 6-(2-amino-3-methyl-1-oxopentyl)sulfamate] | 135 nM | > 500 µg/mL | > 500 µg/mL | > 500 µg/mL | > 500 µg/mL | > 500 µg/mL | > 500 µg/mL | > 500 µg/mL | – | –
CC[C@H](C)[C@H](N)C(=O)NS(=O)(=O)OC[C@H]1O[C@@H](CCn2nnc(-c3ccc([N+](=O)[O-])o3)n2)[C@H](O)[C@@H]1O [XXVIII] | 8.8 nM | > 128 µg/mL | > 128 µg/mL | 500 µg/mL (≈ 937 µM) | > 128 µg/mL | 32 µg/mL (≈ 60 µM) | 128 µg/mL (≈ 240 µM) | 128 µg/mL (≈ 240 µM) | – | –
CC[C@H](C)[C@H](N)C(=O)NS(=O)(=O)OC[C@H]1O[C@@H](CCn2nnc(-c3ccc(-c4ccccn4)nc3)n2)[C@H](O)[C@@H]1O [XXV] | 0.5 nM | > 500 µg/mL | > 500 µg/mL | – | 50 µg/mL (≈ 86.7 µM) | 25 µg/mL (≈ 43.4 µM) | 500 µg/mL (≈ 867 µM) | 100 µg/mL (≈ 173 µM) | > 500 µg/mL | > 500 µg/mL
CC[C@H](C)[C@H](N)C(=O)NS(=O)(=O)OC[C@H]1O[C@@H](CCn2nnc(Cc3ccc(Oc4ccccc4)cc3)n2)[C@H](O)[C@@H]1O [XXX] | 2.7 nM | 500 µg/mL (≈ 827 µM) | 100 µg/mL (≈ 165 µM) | > 200 µg/mL | 100 µg/mL (≈ 165 µM) | 25 µg/mL (≈ 41.3 µM) | 100 µg/mL (≈ 165 µM) | 500 µg/mL (≈ 827 µM) | – | –
